Results from patent publication US20040235834A1, “Thiazoles useful as inhibitors of protein kinases” (priority 2003, published 2004).
pKi: −log10 of the molar value.

Columns and labels:
SYK = SYK (Homo sapiens, UniProt P43405); experiment: SYK inhibition assay (standard coupled enzyme assay); type: biochemical; conditions: 200 μM ATP, 4 μM poly Gly-Tyr peptide, 30° C.
Protocol: Compounds were screened for their ability to inhibit SYK using a standard coupled enzyme assay (Fox et al., Protein Sci. 1998, 7, 2249). Reactions were carried out in 100 mM HEPES (pH 7.5), 10 mM MgCl2, 25 mM NaCl, 1 mM DTT and 1.5% DMSO. Final substrate concentrations in the assay were 200 μM ATP (Sigma chemical Co.) and 4 μM poly Gly—Tyr peptide (Sigma Chemical Co.). Assays were carried out at 30° C. and 200 nM SYK. Final concentrations of the components of the coupled enzyme system were 2.5 mM phosphoenolpyruvate, 300 μM NADH, 30 μg/ml pyruvate kinase and 10 μg/ml lactate dehydrogenase.
An assay stock buffer solution was prepared containing all of the reagents listed above, with the exception of SYK, DTT, and the test compound of interest of the present invention. 56 μl of the test reaction was placed in a 96 well plate followed by the addition of 1 μl of 2 mM DMSO stock containing the test compound of the present invnetion (final compound concentration 30 μM). The plate was pre-incubated for ˜10 minutes at 30° C. and the reaction initiated by the addition of 10 μl of enzyme (final concentration 25 nM).

ZAP-70 = target: T1, ZAP-70 (Homo sapiens, UniProt P43403); experiment: ZAP-70 inhibition assay (standard coupled enzyme assay); type: biochemical; conditions: 100 μM ATP, 20 μM poly-4EY peptide, 30° C., 60 nM ZAP-70
T1 sequence (P43403 1-619): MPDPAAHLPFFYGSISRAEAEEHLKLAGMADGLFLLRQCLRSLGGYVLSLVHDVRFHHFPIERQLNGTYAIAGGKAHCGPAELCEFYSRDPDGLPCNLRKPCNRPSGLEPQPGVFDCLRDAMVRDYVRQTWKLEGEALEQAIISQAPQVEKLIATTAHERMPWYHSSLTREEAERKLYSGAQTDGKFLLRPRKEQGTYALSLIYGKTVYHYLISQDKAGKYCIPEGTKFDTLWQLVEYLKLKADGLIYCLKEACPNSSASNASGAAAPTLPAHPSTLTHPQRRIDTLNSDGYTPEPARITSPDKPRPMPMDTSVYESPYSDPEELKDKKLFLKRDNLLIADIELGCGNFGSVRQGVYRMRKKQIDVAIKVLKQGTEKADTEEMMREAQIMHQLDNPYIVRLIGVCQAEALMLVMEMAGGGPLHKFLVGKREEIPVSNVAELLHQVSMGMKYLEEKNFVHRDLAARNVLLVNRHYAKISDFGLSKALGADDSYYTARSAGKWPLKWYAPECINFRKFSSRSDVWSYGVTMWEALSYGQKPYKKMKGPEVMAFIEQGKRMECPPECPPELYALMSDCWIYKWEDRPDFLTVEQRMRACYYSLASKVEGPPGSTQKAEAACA
Protocol: Compounds were screened for their ability to inhibit ZAP-70 using a standard coupled enzyme assay (Fox et al., Protein Sci. 1998, 7, 2249). Assays were carried out in a mixture of 100 mM HEPES (pH 7.5), 10 mM MgCl2, 25 mM NaCl, 2 mM DTT and 3% DMSO. Final substrate concentrations in the assay were 100 μM ATP (Sigma Chemicals) and 20 μM peptide (poly-4EY, Sigma Chemicals). Assays were carried out at 30° C. and 60 nM ZAP-70. Final concentrations of the components of the coupled enzyme system were 2.5 mM phosphoenolpyruvate, 300 μM NADH, 30 μg/ml pyruvate kinase and 10 μg/ml lactate dehydrogenase.
An assay stock buffer solution was prepared containing all of the reagents listed above, with the exception of ZAP-70 and the test compound of interest of the present invention. 55 μl of the stock solution was placed in a 96 well plate followed by addition of 2 μl of DMSO stock containing serial dilutions of the test compound of the present invention (typically starting from a final concentration of 15 μM). The plate was preincubated for 10 minutes at 30° C. and the reaction initiated by addition of 10 μl of enzyme (final concentration 60 nM). Initial reaction rates were determined with a Molecular Devices SpectraMax Plus plate reader over a 15 minute time course. Ki data was calculated from non-linear regression analysis using the Prism software package (GraphPad Prism version 3.Oa for Macintosh, GraphPad Software, San Diego Calif., USA).

Structure (SMILES)	pKi (SYK)	pKi (ZAP-70)
Cc1cc(C)cc(Nc2nccc(-c3cscn3)n2)c1 [Compound I-1]	≥ 5.30	≥ 5.30
COc1cc(Nc2nccc(-c3cscn3)n2)cc(C(F)(F)F)c1 [Compound I-2]	≥ 5.30	≥ 5.30
CC(=O)c1nc(-c2ccnc(Nc3cc(C)cc(C)c3)n2)cs1 [Compound I-3]	≥ 5.30	≥ 5.30
Cc1cc(C)cc(Nc2nccc(-c3csc(CO)n3)n2)c1 [Compound I-4]	≥ 5.30	≥ 5.30
Cc1cc(Nc2nccc(-c3cscn3)n2)cc(C(F)(F)F)c1 [Compound I-5]	≥ 5.30	≥ 5.30
Oc1cc(Nc2nccc(-c3cscn3)n2)cc(C(F)(F)F)c1 [Compound I-6]	≥ 5.30	≥ 5.30
